We go through 3 compounds from article PMC5995653 (Journal of pharmacological and toxicological methods, 2018).

Like-named read-outs stand apart in the source and are kept apart here.

Test [1] addresses T1, hSERT (Homo sapiens, UniProt P31645). The following applies: read-out: Reuptake inhibition activity IC50, hSERT, JAR cells.
Test [2] addresses T1, hSERT. The following applies: read-out: Reuptake inhibition activity IC50, hSERT-HEK293 cells; cited from earlier work.
The target of the next test is rSERT (Rattus norvegicus, UniProt P31652). As to conditions: read-out: Ki, rSERT, synaptosomes; cited from earlier work.
rSERT, sequence (P31652 whole entry): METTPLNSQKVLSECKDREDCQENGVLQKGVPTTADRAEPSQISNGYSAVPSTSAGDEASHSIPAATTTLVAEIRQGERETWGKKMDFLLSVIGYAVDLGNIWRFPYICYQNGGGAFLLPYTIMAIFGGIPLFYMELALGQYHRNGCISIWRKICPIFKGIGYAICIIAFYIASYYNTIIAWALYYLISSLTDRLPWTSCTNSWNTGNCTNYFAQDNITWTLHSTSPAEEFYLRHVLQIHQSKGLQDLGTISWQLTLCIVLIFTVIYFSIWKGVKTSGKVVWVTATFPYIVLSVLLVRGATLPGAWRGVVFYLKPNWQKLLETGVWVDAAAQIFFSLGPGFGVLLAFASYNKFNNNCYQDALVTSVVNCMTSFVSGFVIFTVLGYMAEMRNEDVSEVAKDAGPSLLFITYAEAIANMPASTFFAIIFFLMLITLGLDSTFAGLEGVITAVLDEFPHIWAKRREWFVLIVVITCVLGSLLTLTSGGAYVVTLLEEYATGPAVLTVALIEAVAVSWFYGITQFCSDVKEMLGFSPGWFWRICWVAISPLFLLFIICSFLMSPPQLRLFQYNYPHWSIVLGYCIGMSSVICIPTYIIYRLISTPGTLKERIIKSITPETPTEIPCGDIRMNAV
Test [3] addresses T1, hSERT. As to the kind of experiment: SERT reuptake inhibition in transfected hSERT-HEK293 cells. It counts as cell-based. As to conditions: unpublished results of the authors' group.

For orientation: IC50 means the concentration needed to halve the response being measured. As usually defined, the Ki is a measure of affinity in units of concentration, obtained from inhibition or displacement.

T1 sequence (P31645 whole entry): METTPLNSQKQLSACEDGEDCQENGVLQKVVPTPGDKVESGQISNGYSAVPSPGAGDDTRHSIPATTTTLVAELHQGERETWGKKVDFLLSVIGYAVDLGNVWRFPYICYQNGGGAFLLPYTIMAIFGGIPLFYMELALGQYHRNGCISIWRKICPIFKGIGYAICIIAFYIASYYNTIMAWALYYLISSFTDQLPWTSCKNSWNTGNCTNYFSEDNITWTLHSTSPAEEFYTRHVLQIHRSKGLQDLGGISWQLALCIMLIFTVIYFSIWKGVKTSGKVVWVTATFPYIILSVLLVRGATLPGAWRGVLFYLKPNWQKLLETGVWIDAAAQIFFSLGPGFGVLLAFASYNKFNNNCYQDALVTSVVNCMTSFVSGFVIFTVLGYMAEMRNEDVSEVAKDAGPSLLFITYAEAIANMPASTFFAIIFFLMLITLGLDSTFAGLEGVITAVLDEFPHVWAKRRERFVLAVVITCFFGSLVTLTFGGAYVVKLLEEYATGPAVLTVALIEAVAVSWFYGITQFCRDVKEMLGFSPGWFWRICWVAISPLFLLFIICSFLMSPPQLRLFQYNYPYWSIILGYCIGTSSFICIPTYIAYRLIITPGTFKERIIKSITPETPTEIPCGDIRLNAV

On to `COC(=O)[C@H]1C(c2ccc(I)cc2)C[C@@H]2CC[C@H]1N2C` (stereo partly drawn) [RTI-55], for which the half-maximal inhibitory concentration (IC50) was 1.31 ± 0.1 nM at hSERT [1] and 0.51 ± 0.14 nM at hSERT [2]. Further, on rSERT, the inhibition constant (Ki) is 1 nM.
As for `CN1[C@H]2CC[C@@H]1[C@@H](C(=O)N1CCCC1)[C@@H](c1ccc(I)cc1)C2` [RTI-229], at hSERT [1], the half-inhibitory concentration (IC50) was 589 ± 42 nM. Also, the inhibition constant Ki at rSERT is 362 nM.
Turning to `Fc1ccc(C(OCCN2CCN(CCCc3ccccc3)CC2)c2ccc(F)cc2)cc1` [GBR12909], the “Activity in hSERT-HEK293 cells (in words)” value at hSERT [3] is “inactive”.
